The test system of assay [1] is Staphylococcus aureus. The experiment in a line: Antibacterial activity against antibiotic resistant Staphylococcus aureus ATCC 33591 assessed as inhibition of bacterial growth by CLSI protocol based broth microdilution method. The class given is functional.
Assay [2] relates to Enterococcus faecalis. The experiment in a line: Antibacterial activity against antibiotic susceptible Enterococcus faecalis ATCC 29212 assessed as inhibition of bacterial growth by CLSI protocol based broth microdilution method. The class given is functional.
In assay [3] the test system is Staphylococcus aureus. The experiment in a line: Bactericidal activity against Staphylococcus aureus ATCC 700699 persisters assessed as log reduction in colony forming unit at 2 to 32 times MIC measured for 4 hrs by time kill assay. The following applies: DDE = dose-dependent effect. The class given is functional, organism-based.
Assay [4] concerns Enterococcus faecalis. Briefly: Antibacterial activity against Enterococcus faecalis clinical isolate 1091563 assessed as inhibition of bacterial growth by CLSI protocol based broth microdilution method. The class given is functional. Background: Dilution methods test growth across graded concentrations, often in twofold steps.
Assay [5] concerns Enterococcus faecium. The experiment in a line: Antibacterial activity against Enterococcus faecium clinical isolate 1088168 assessed as inhibition of bacterial growth by CLSI protocol based broth microdilution method. The class given is functional.
Assay [6] has as its system Enterococcus faecium. The experiment in a line: Antibacterial activity against Enterococcus faecium clinical isolate 1088228 assessed as inhibition of bacterial growth by CLSI protocol based broth microdilution method. The class given is functional.
The test system of assay [7] is Enterococcus faecium. Briefly: Antibacterial activity against Enterococcus faecium clinical isolate 1088925 assessed as inhibition of bacterial growth by CLSI protocol based broth microdilution method. The class given is functional.
The test system of assay [8] is Staphylococcus aureus. The experiment in a line: Antibacterial activity against Staphylococcus aureus clinical isolate 1088105 assessed as inhibition of bacterial growth by CLSI protocol based broth microdilution method. The class given is functional.
In assay [9] the test system is Staphylococcus aureus. Briefly: Antibacterial activity against Staphylococcus aureus clinical isolate 1088626 assessed as inhibition of bacterial growth by CLSI protocol based broth microdilution method. The class given is functional.
Assay [10] relates to Staphylococcus aureus. Briefly: Antibacterial activity against Staphylococcus aureus clinical isolate 1088610 assessed as inhibition of bacterial growth by CLSI protocol based broth microdilution method. The class given is functional.
Assay [11] deals with Staphylococcus aureus. The experiment in a line: Inhibition of DNA synthesis in Staphylococcus aureus ATCC 29213 at 0.5 times MIC preincubated for 30 mins followed by [3H]-thymidine and measured after 30 mins by [3H]-thymidine incorporation based beta scintillation counter analysis. The class given is functional. The following applies: time 60 min; 1 h. In general terms: Dividing cells build labelled thymidine or BrdU into new DNA.

For assay [12], the system named is Staphylococcus aureus. Briefly: Inhibition of protein synthesis in Staphylococcus aureus ATCC 29213 at 0.25 times MIC preincubated for 30 mins followed by [3H]-leucine and measured after 40 mins by [3H]-leucine incorporation based beta scintillation counter analysis. The class given is functional. The following applies: time 70.0 min.
In assay [13] the test system is Staphylococcus aureus. The experiment in a line: Inhibition of protein synthesis in Staphylococcus aureus ATCC 29213 at MIC preincubated for 30 mins followed by [3H]-leucine and measured after 40 mins by [3H]-leucine incorporation based beta scintillation counter analysis. The class given is functional. As to conditions: time 70.0 min.
The subject of assay [14] is Staphylococcus aureus. Briefly: Inhibition of lipid synthesis in Staphylococcus aureus ATCC 29213 at 0.5 times MIC preincubated for 30 mins followed by [3H]-glycerol and measured after 50 mins by [3H]-glycerol incorporation based beta scintillation counter analysis. The class given is functional. The following applies: time 80 min; 1.333 h.
The test system of assay [15] is Staphylococcus aureus. The experiment in a line: Inhibition of lipid synthesis in Staphylococcus aureus ATCC 29213 at MIC preincubated for 30 mins followed by [3H]-glycerol and measured after 50 mins by [3H]-glycerol incorporation based beta scintillation counter analysis. The class given is functional. The following applies: time 80 min; 1.333 h.

Structures are written as SMILES. In brackets after ≈: the same amount, converted by molar mass.

For orientation: MIC means the lowest concentration that inhibits growth of the organism. By inhibition is commonly meant the percentage by which the read-out fell short of the control. Consider `O=C(O)c1ccc(-c2nn(-c3ccc(C(F)(F)F)cc3)cc2CNc2ccc(Br)c(C(F)(F)F)c2)cc1`, for which the MIC came out at 1.56 µg/mL (≈ 2.67 µM) with Staphylococcus aureus [1]; 3.12 µg/mL (≈ 5.35 µM) in the assay on Enterococcus faecalis [2]; 8 µg/mL (≈ 13.7 µM) in the assay with Enterococcus faecalis [4]; 4 µg/mL (≈ 6.85 µM) in the assay on Enterococcus faecium [5]; 8 µg/mL (≈ 13.7 µM) in the assay on Enterococcus faecium [6]; 8 µg/mL (≈ 13.7 µM) with Enterococcus faecium [7]. Also, the minimal inhibitory concentration (MIC) with Staphylococcus aureus [8], in the assay on Staphylococcus aureus [9] and in the assay on Staphylococcus aureus [10] was 4 µg/mL (≈ 6.85 µM) in each case. In addition, the Activity entry with Staphylococcus aureus [3] is “Dde”. For the same compound, the “inhibition (INH)” value is 43.6% in the assay on Staphylococcus aureus [11], 57% with Staphylococcus aureus [14] and 88.3% with Staphylococcus aureus [15]. Moreover, the inhibition came out at 55.4% in the assay with Staphylococcus aureus [12] and 86.1% in the assay with Staphylococcus aureus [13].

The values are drawn from ChEMBL document CHEMBL5107949, “Design, synthesis, and antibacterial activity of N-(trifluoromethyl)phenyl substituted pyrazole derivatives” (RSC Med Chem, 2021).
